Results from paper PMC5218480 (PLoS ONE, 2017).

System: MV-4-11 cells
Assay: Gene expression microarray analysis (Affymetrix PrimeView) and GSEA
Assay type: cell-based, human
Parameters: RFU PODN (11730768_x_at) / Fold change /veh PODN (11730768_x_at) / RFU LINC00158 (11744669_a_at) / Fold change /veh LINC00158 (11744669_a_at) / RFU DUSP10 (11751237_a_at) / Fold change /veh DUSP10 (11751237_a_at) / RFU ID3 (11757404_x_at) / Fold change /veh ID3 (11757404_x_at) / RFU PLEKHG5 (11737974_s_at) / Fold change /veh PLEKHG5 (11737974_s_at) / RFU LRRC4B (11730491_at) / Fold change /veh LRRC4B (11730491_at) / RFU GIMAP4 (11747438_a_at) / Fold change /veh GIMAP4 (11747438_a_at) / RFU KRT8 (11758183_x_at) / Fold change /veh KRT8 (11758183_x_at) / RFU CNN1 (11734310_a_at) / Fold change /veh CNN1 (11734310_a_at) / RFU VPS37D (11726825_at) / Fold change /veh VPS37D (11726825_at) / RFU C10orf10 (11716522_x_at) / Fold change /veh C10orf10 (11716522_x_at) / RFU KIR2DL2 /// KIR2DL4 /// KIR2DL5A /// KIR2DL5B /// KIR2DS1 /// KIR2DS2 /// KIR2DS3 /// KIR2DS4 /// KIR3DL3 /// KIR3DL3 /// KIR3DS1 (11738374_at) / Fold change /veh KIR2DL2 /// KIR2DL4 /// KIR2DL5A /// KIR2DL5B /// KIR2DS1 /// KIR2DS2 /// KIR2DS3 /// KIR2DS4 /// KIR3DL3 /// KIR3DL3 /// KIR3DS1 (11738374_at) / RFU C1QL1 (11718748_at) / Fold change /veh C1QL1 (11718748_at) / RFU TMPRSS4 (11747572_a_at) / Fold change /veh TMPRSS4 (11747572_a_at) / RFU HAMP (11756126_x_at) / Fold change /veh HAMP (11756126_x_at) / RFU RNFT2 (11725882_a_at) / Fold change /veh RNFT2 (11725882_a_at) / RFU NR4A2 (11747474_a_at) / Fold change /veh NR4A2 (11747474_a_at) / RFU ABCC12 (11746883_a_at) / Fold change /veh ABCC12 (11746883_a_at) / RFU TMEM136 (11760407_x_at) / Fold change /veh TMEM136 (11760407_x_at) / RFU CLDN22 /// WWC2 (11732394_at) / Fold change /veh CLDN22 /// WWC2 (11732394_at) / RFU HLA-DPB1 (11760878_x_at) / Fold change /veh HLA-DPB1 (11760878_x_at) / RFU SPINT1 (11716480_a_at) / Fold change /veh SPINT1 (11716480_a_at) / RFU GAP43 (11754022_s_at) / Fold change /veh GAP43 (11754022_s_at) / RFU A4GNT (11735810_at) / Fold change /veh A4GNT (11735810_at) / RFU PRB3 (11715151_x_at) / Fold change /veh PRB3 (11715151_x_at) / RFU TUBB4B (11761932_at) / Fold change /veh TUBB4B (11761932_at) / RFU CAPN14 (11732068_a_at) / Fold change /veh CAPN14 (11732068_a_at) / RFU TMCC2 (11721928_a_at) / Fold change /veh TMCC2 (11721928_a_at) / RFU IRGQ (11745062_a_at) / Fold change /veh IRGQ (11745062_a_at) / RFU FAM174B (11720279_a_at) / Fold change /veh FAM174B (11720279_a_at) / RFU TMPRSS4 (11748680_a_at) / Fold change /veh TMPRSS4 (11748680_a_at) / RFU FAM212B (11763350_a_at) / Fold change /veh FAM212B (11763350_a_at) / RFU PLEKHG5 (11743358_a_at) / Fold change /veh PLEKHG5 (11743358_a_at) / RFU ZSCAN30 (11745921_a_at) / Fold change /veh ZSCAN30 (11745921_a_at) / RFU CMKLR1 (11741424_a_at) / Fold change /veh CMKLR1 (11741424_a_at) / RFU LOC101060620 /// MAPK8IP1 (11723275_at) / Fold change /veh LOC101060620 /// MAPK8IP1 (11723275_at) / RFU SPTSSB (11747773_x_at) / Fold change /veh SPTSSB (11747773_x_at) / RFU PRSS12 (11739890_at) / Fold change /veh PRSS12 (11739890_at) / RFU BIN1 (11741810_x_at) / Fold change /veh BIN1 (11741810_x_at) / RFU WNT11 (11732464_a_at) / Fold change /veh WNT11 (11732464_a_at) / RFU C10orf10 (11716521_a_at) / Fold change /veh C10orf10 (11716521_a_at) / RFU C5orf56 (11738089_at) / Fold change /veh C5orf56 (11738089_at) / RFU CYB561 (11721691_x_at) / Fold change /veh CYB561 (11721691_x_at) / RFU ANKRD19P (11752326_a_at) / Fold change /veh ANKRD19P (11752326_a_at) / RFU OR2T12 /// OR2T33 /// OR2T8 (11738714_s_at) / Fold change /veh OR2T12 /// OR2T33 /// OR2T8 (11738714_s_at) / RFU VCAN (11748164_a_at) / Fold change /veh VCAN (11748164_a_at) / RFU JSRP1 (11732532_at) / Fold change /veh JSRP1 (11732532_at) / RFU KRTAP10-11 (11738290_x_at) / Fold change /veh KRTAP10-11 (11738290_x_at) / RFU MYO3A (11730013_a_at) / Fold change /veh MYO3A (11730013_a_at) / RFU EBF3 (11725865_a_at) / Fold change /veh EBF3 (11725865_a_at) / RFU CAMK2N1 (11719241_x_at) / Fold change /veh CAMK2N1 (11719241_x_at) / RFU C5orf56 (11738088_a_at) / Fold change /veh C5orf56 (11738088_a_at) / RFU OLFML3 (11715873_a_at) / Fold change /veh OLFML3 (11715873_a_at) / RFU LOC100653217 /// NTM (11731650_a_at) / Fold change /veh LOC100653217 /// NTM (11731650_a_at) / RFU MAPK11 (11762145_a_at) / Fold change /veh MAPK11 (11762145_a_at) / RFU FIZ1 (11724087_x_at) / Fold change /veh FIZ1 (11724087_x_at) / RFU OASL (11726364_x_at) / Fold change /veh OASL (11726364_x_at) / RFU SOX15 (11748057_x_at) / Fold change /veh SOX15 (11748057_x_at) / RFU CD79A (11719716_a_at) / Fold change /veh CD79A (11719716_a_at) / RFU HIST1H1D (11736915_at) / Fold change /veh HIST1H1D (11736915_at) / RFU CASKIN2 (11723855_a_at) / Fold change /veh CASKIN2 (11723855_a_at) / RFU LOC730098 (11760151_x_at) / Fold change /veh LOC730098 (11760151_x_at) / RFU OR4N2 (11742367_at) / Fold change /veh OR4N2 (11742367_at) / RFU PRRT2 (11749266_a_at) / Fold change /veh PRRT2 (11749266_a_at) / RFU SNX32 (11753110_a_at) / Fold change /veh SNX32 (11753110_a_at) / RFU CDHR5 (11726645_a_at) / Fold change /veh CDHR5 (11726645_a_at) / RFU RCAN1 (11760418_a_at) / Fold change /veh RCAN1 (11760418_a_at) / RFU FAM167A (11723789_a_at) / Fold change /veh FAM167A (11723789_a_at) / RFU FAM26E (11764081_at) / Fold change /veh FAM26E (11764081_at) / RFU ISYNA1 (11749810_s_at) / Fold change /veh ISYNA1 (11749810_s_at) / RFU ACY1 (11761880_at) / Fold change /veh ACY1 (11761880_at) / RFU 11764098_at / Fold change /veh 11764098_at / RFU SAMD14 (11745864_x_at) / Fold change /veh SAMD14 (11745864_x_at) / RFU NPB (11741838_a_at) / Fold change /veh NPB (11741838_a_at) / RFU TMPRSS6 (11731388_a_at) / Fold change /veh TMPRSS6 (11731388_a_at) / RFU KRTAP10-2 (11738614_at) / Fold change /veh KRTAP10-2 (11738614_at) / RFU ARHGAP8 /// PRR5-ARHGAP8 (11727945_x_at) / Fold change /veh ARHGAP8 /// PRR5-ARHGAP8 (11727945_x_at) / RFU KRTAP5-7 /// NADSYN1 (11734609_at) / Fold change /veh KRTAP5-7 /// NADSYN1 (11734609_at) / RFU RASL12 (11751679_a_at) / Fold change /veh RASL12 (11751679_a_at) / RFU CDKN2B (11736163_a_at) / Fold change /veh CDKN2B (11736163_a_at) / RFU PRF1 (11729649_at) / Fold change /veh PRF1 (11729649_at) / RFU, ZNF638 /// ZNF638-IT1 / Fold change vs veh, ZNF638 /// ZNF638-IT1 / RFU, PANK3 / Fold change vs veh, PANK3 / RFU, SH3YL1 / Fold change vs veh, SH3YL1 / RFU, ZEB2 / Fold change vs veh, ZEB2 / RFU, NRIP1 / Fold change vs veh, NRIP1 / RFU, PTTG1IP / Fold change vs veh, PTTG1IP / RFU, CAPN2 / Fold change vs veh, CAPN2 / RFU, MED14 / Fold change vs veh, MED14 / RFU, SNORA58 / Fold change vs veh, SNORA58 / RFU, C1orf63 / Fold change vs veh, C1orf63 / RFU, LRRFIP1 / Fold change vs veh, LRRFIP1 / RFU, NDUFAF7 / Fold change vs veh, NDUFAF7 / RFU, SLC12A2 / Fold change vs veh, SLC12A2 / RFU, IBTK / Fold change vs veh, IBTK / RFU, ESF1 / Fold change vs veh, ESF1 / Fold change vs veh, TMEM50B / RFU, TAOK1 / Fold change vs veh, TAOK1 / RFU, ACBD3 / Fold change vs veh, ACBD3 / RFU, TMA16 / Fold change vs veh, TMA16 / RFU, RWDD3 / Fold change vs veh, RWDD3 / RFU, BCAT1 / Fold change vs veh, BCAT1 / RFU, EDEM3 / Fold change vs veh, EDEM3 / RFU, TMEM33 / Fold change vs veh, TMEM33 / RFU, WDR75 / Fold change vs veh, WDR75 / RFU, AHCTF1 / Fold change vs veh, AHCTF1 / RFU, TFRC / Fold change vs veh, TFRC / RFU, ZDHHC17 / Fold change vs veh, ZDHHC17 / RFU, NOM1 / Fold change vs veh, NOM1 / RFU, ARL8B / Fold change vs veh, ARL8B / RFU, ZBTB11 / Fold change vs veh, ZBTB11 / RFU, TAMM41 / Fold change vs veh, TAMM41 / RFU, KIAA1704 /// LOC100996395 / Fold change vs veh, KIAA1704 /// LOC100996395 / RFU, ING1 / Fold change vs veh, ING1 / RFU, TRMT61B / Fold change vs veh, TRMT61B / RFU, FUBP3 / Fold change vs veh, FUBP3 / RFU, TP53 / Fold change vs veh, TP53 / RFU, TNKS2 / Fold change vs veh, TNKS2 / RFU, ZFP14 / Fold change vs veh, ZFP14 / RFU, ACTR2 / Fold change vs veh, ACTR2 / RFU, PPP3R1 / Fold change vs veh, PPP3R1 / RFU, PIK3R1 / Fold change vs veh, PIK3R1 / RFU, HNRNPA1 / Fold change vs veh, HNRNPA1 / RFU, RNF170 / Fold change vs veh, RNF170 / RFU, ZNF28 / Fold change vs veh, ZNF28 / RFU, RNGTT / Fold change vs veh, RNGTT / RFU, OGT / Fold change vs veh, OGT / RFU, BRD1 / Fold change vs veh, BRD1 / RFU, MARS / Fold change vs veh, MARS / RFU, ZNF655 / Fold change vs veh, ZNF655 / RFU, FAHD1 / Fold change vs veh, FAHD1 / RFU, BDP1 / Fold change vs veh, BDP1 / RFU, LRRCC1 / Fold change vs veh, LRRCC1 / RFU, ARID1A / Fold change vs veh, ARID1A / RFU, ZNF146 / Fold change vs veh, ZNF146 / RFU, ZNF330 / Fold change vs veh, ZNF330 / RFU, GPN3 / Fold change vs veh, GPN3 / RFU, C9orf123 / Fold change vs veh, C9orf123 / RFU, N4BP2L2 / Fold change vs veh, N4BP2L2 / RFU, ARFIP1 / Fold change vs veh, ARFIP1 / RFU, FAM179B / Fold change vs veh, FAM179B / RFU, BCL10 / Fold change vs veh, BCL10 / RFU, UHRF1BP1L / Fold change vs veh, UHRF1BP1L / RFU, BET1 / Fold change vs veh, BET1 / RFU, CNOT2 / Fold change vs veh, CNOT2 / RFU, ZNF268 / Fold change vs veh, ZNF268 / Fold change vs veh, ZNF507 / RFU, DGCR2 / Fold change vs veh, DGCR2 / RFU, WDSUB1 / Fold change vs veh, WDSUB1 / Fold change vs veh, HSP90B1 /// MIR3652 / RFU, ADSS / Fold change vs veh, ADSS / RFU, GK / Fold change vs veh, GK / RFU, ZNF148 / Fold change vs veh, ZNF148 / RFU, TAF9 / Fold change vs veh, TAF9 / RFU, SLC1A5 / Fold change vs veh, SLC1A5 / RFU, SLMO2 / Fold change vs veh, SLMO2 / RFU, ABCC4 / Fold change vs veh, ABCC4 / RFU, LOC101060439 /// RAP1B / Fold change vs veh, LOC101060439 /// RAP1B / RFU, RFX7 / Fold change vs veh, RFX7 / RFU, GTPBP10 / Fold change vs veh, GTPBP10 / RFU, CNEP1R1 / Fold change vs veh, CNEP1R1 / RFU, BIVM-ERCC5 /// ERCC5 / Fold change vs veh, BIVM-ERCC5 /// ERCC5 / RFU, ILF3 / Fold change vs veh, ILF3 / RFU 11762660_at / Fold change /veh 11762660_at / RFU VCAN (11757783_s_at) / Fold change /veh VCAN (11757783_s_at) / RFU DDX43 (11728927_at) / Fold change /veh DDX43 (11728927_at) / RFU KRT8 (11758188_x_at) / Fold change /veh KRT8 (11758188_x_at) / RFU NKD1 (11759106_at) / Fold change /veh NKD1 (11759106_at) / RFU SRD5A1 (11742802_a_at) / Fold change /veh SRD5A1 (11742802_a_at) / RFU TPSAB1 /// TPSB2 (11721975_s_at) / Fold change /veh TPSAB1 /// TPSB2 (11721975_s_at) / RFU GSTM3 (11746129_a_at) / Fold change /veh GSTM3 (11746129_a_at) / RFU IL23R (11737362_x_at) / Fold change /veh IL23R (11737362_x_at) / RFU TMEM51 (11727254_a_at) / Fold change /veh TMEM51 (11727254_a_at) / RFU PIWIL2 (11732686_x_at) / Fold change /veh PIWIL2 (11732686_x_at) / RFU ORM1 (11744905_x_at) / Fold change /veh ORM1 (11744905_x_at) / RFU CCDC152 (11743942_at) / Fold change /veh CCDC152 (11743942_at) / RFU ECM1 (11717891_a_at) / Fold change /veh ECM1 (11717891_a_at) / RFU IL23R (11748794_a_at) / Fold change /veh IL23R (11748794_a_at) / RFU TNFAIP8L3 (11732012_x_at) / Fold change /veh TNFAIP8L3 (11732012_x_at) / RFU MBOAT4 (11741988_at) / Fold change /veh MBOAT4 (11741988_at) / RFU 11764193_at / Fold change /veh 11764193_at / RFU TMEM53 (11763286_at) / Fold change /veh TMEM53 (11763286_at) / RFU MAGEB2 (11727129_at) / Fold change /veh MAGEB2 (11727129_at) / RFU TMEM200A (11744735_a_at) / Fold change /veh TMEM200A (11744735_a_at) / RFU CCDC152 (11751479_a_at) / Fold change /veh CCDC152 (11751479_a_at) / RFU FAM211A (11726209_a_at) / Fold change /veh FAM211A (11726209_a_at) / RFU RGS16 (11746705_a_at) / Fold change /veh RGS16 (11746705_a_at) / RFU VCAN (11755009_s_at) / Fold change /veh VCAN (11755009_s_at) / RFU RHOB (11743442_s_at) / Fold change /veh RHOB (11743442_s_at) / RFU RGS16 (11720943_a_at) / Fold change /veh RGS16 (11720943_a_at) / RFU RGS16 (11720944_at) / Fold change /veh RGS16 (11720944_at) / RFU, VPS4B / Fold change vs veh, VPS4B / RFU, CREB1 / Fold change vs veh, CREB1 / RFU, DNAJC13 / Fold change vs veh, DNAJC13 / RFU, GNAQ / Fold change vs veh, GNAQ / RFU, CDK5R1 / Fold change vs veh, CDK5R1 / RFU, ZRANB3 / Fold change vs veh, ZRANB3 / RFU, CUL4A / Fold change vs veh, CUL4A / RFU, CCNY / Fold change vs veh, CCNY / RFU, UFL1 / Fold change vs veh, UFL1 / RFU, COG3 / Fold change vs veh, COG3 / RFU, DIAPH2 / Fold change vs veh, DIAPH2 / RFU, SKA2 / Fold change vs veh, SKA2 / RFU, AFF3 / Fold change vs veh, AFF3 / RFU, LMF1 / Fold change vs veh, LMF1 / RFU, IPO11 / Fold change vs veh, IPO11 / RFU, DFFB / Fold change vs veh, DFFB / RFU, FOXP1 / Fold change vs veh, FOXP1 / RFU, CARD8 / Fold change vs veh, CARD8 / RFU, STRN3 / Fold change vs veh, STRN3 / RFU, ADK / Fold change vs veh, ADK / RFU, RASSF2 / Fold change vs veh, RASSF2 / RFU, WIPF1 / Fold change vs veh, WIPF1 / RFU, LARP1B / Fold change vs veh, LARP1B / RFU, RASA1 / Fold change vs veh, RASA1 / RFU, RB1 / Fold change vs veh, RB1 / RFU, PPFIA1 / Fold change vs veh, PPFIA1 / RFU, MAT2A / Fold change vs veh, MAT2A / RFU, CCT5 / Fold change vs veh, CCT5 / RFU, WDR92 / Fold change vs veh, WDR92 / RFU, CUX1 / Fold change vs veh, CUX1 / RFU, TTC7A / Fold change vs veh, TTC7A / RFU, TMEM135 / Fold change vs veh, TMEM135 / RFU, DEPTOR / Fold change vs veh, DEPTOR / RFU, CPM / Fold change vs veh, CPM / RFU, DNAJB6 / Fold change vs veh, DNAJB6 / RFU, CACNA2D3 / Fold change vs veh, CACNA2D3 / RFU, DTX4 / Fold change vs veh, DTX4 / RFU, TFCP2 / Fold change vs veh, TFCP2 / RFU, GMCL1 /// GMCL1P1 / Fold change vs veh, GMCL1 /// GMCL1P1 / RFU, AEBP2 / Fold change vs veh, AEBP2 / RFU, SNHG1 /// SNORD22 /// SNORD25 /// SNORD26 /// SNORD27 /// SNORD28 /// SNORD29 /// SNORD31 / Fold change vs veh, SNHG1 /// SNORD22 /// SNORD25 /// SNORD26 /// SNORD27 /// SNORD28 /// SNORD29 /// SNORD31 / Fold change (Aza/veh), C12orf56 (ProbeSet 11735607_a_at) / Fold change (ACY-1035/veh), C12orf56 (ProbeSet 11735607_a_at) / Fold change (Aza/veh), FGFR1OP (ProbeSet 11751329_s_at) / Fold change (ACY-1035/veh), FGFR1OP (ProbeSet 11751329_s_at) / Fold change (Aza/veh), VPS36 (ProbeSet 11739960_a_at) / Fold change (ACY-1035/veh), VPS36 (ProbeSet 11739960_a_at) / RFU SYPL1 (11715823_x_at) / Fold change /veh SYPL1 (11715823_x_at) / RFU IGFBP7 (11715501_s_at) / Fold change /veh IGFBP7 (11715501_s_at) / RFU REEP3 (11722064_at) / Fold change /veh REEP3 (11722064_at) / RFU IGLL1 (11728026_x_at) / Fold change /veh IGLL1 (11728026_x_at): dose or concentration left out as unconfirmed
Settings: MV-4-11 cells, 48 hours

**Q.** With Nc1ccc(-c2cccs2)cc1NC(=O)c1ccc2c(c1)cc(C1CC1)n2CCN1CCOCC1 [ACY-1035] as the compound, how does the “RFU TPSAB1 /// TPSB2 (11721975_s_at)” value read?
**A.** 19.29 RFU
